Where two headings read alike, the source gives them in different places. One block for each molecule: values may come before it.
How the values were obtained:
PC-3 cells = assay: MTT cell growth inhibition, PC-3; details: for Cellular IC50 (μM) PC-3: Table 2, 72 h, max tested 50 μM (β-ionone 150 μM)
Method: (§1) MDA PCa 2b was seeded at the same density in medium BRFF-HPC1 (Athena Enzyme Systems, Baltimore, Md., USA) supplemented with 20% FBS. After overnight incubation, the medium was changed to a fresh medium containing different concentrations of test compounds diluted from stock DMSO solution. The final concentration of DMSO is 0.5%. After 72 h of incubation with test compounds, 20 μL of 3-(4,5-dimethyl thiazol-2-yl)-2,5-diphenyltetrazolium bromide (MTT) solution (5 mg/mL in PBS) were added to each well and incubated further for 2 h. Next, the supernatant was aspirated and the MTT formazan formed by metabolically viable cells was dissolved in 100 μL of isopropanol. The plates were mixed for 30 min, and the absorbance was measured at 600 nm on a plate reader (FLUOstar OPTIMA, BMG LabTech). All samples were in triplicate. The IC50 values were determined from dose-response curves by nonlinear regression using PRISM v5.00 (GraphPad Software Inc, La Jolla, Calif., USA).
(§2) The in vitro cytotoxicity of 1-20 were evaluated by MTT assays in a panel of prostate cancer cell lines, including LNCaP, MDA PCa 2b, 22Rv1, C4-2B and PC-3.

LNCaP cells = assay: MTT cell growth inhibition, LNCaP;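 note: MTT formazan absorbance at 600 nm read after 72 h of compound exposure, IC50 fitted by nonlinear regression of dose-response curves, samples run in triplicate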
22Rv1 cells = assay: MTT cell growth inhibition, 22Rv1; details: MTT
Method: as §1, §2

C4-2B cells = assay: MTT cell growth inhibition, C4-2B;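 note: cells treated with a dilution series for 72 h, then MTT added and absorbance read at 600 nm, IC50 fitted from dose-response curves by nonlinear regression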
[1] = read-out: Cellular IC50 (μM) PC-3, Table 9
[2] = read-out: Cellular IC50 (μM) LNCaP, Table 9
[3] = read-out: Cellular IC50 (μM) 22Rv1, Table 9
[4] = read-out: Cellular IC50 (μM) C4-2B, Table 9
[5] = read-out: Cellular IC50 (μM) PC3, Table 8
[6] = read-out: Cellular IC50 (μM) LNCaP, Table 8
[7] = read-out: Cellular IC50 (μM) C4-2B, Table 8
[8] = read-out: Cellular IC50 (μM) 22Rv1, Table 8
[9] = read-out: IC50 (μM) PC-3, Table 1, 72 h, maximum tested concentration 50 μM
[10] = read-out: IC50 (μM) LNCaP, Table 1, 72 h
[11] = read-out: IC50 (μM) C4-2B, Table 1, 72 h
[12] = read-out: IC50 (μM) 22Rv1, Table 1, 72 h
[13] = read-out: Cellular IC50 (μM) LNCaP, Table 2, 72 h
[14] = read-out: Cellular IC50 (μM) C4-2B, Table 2, 72 h
[15] = read-out: Cellular IC50 (μM) 22Rv1, Table 2, 72 h

Compound: CCn1c2ccccc2c2cc(/C=C/C(=O)/C=C/C3=CC(O)CCC3(C)C)ccc21 (stereo not shown) [Compound B91]
- IC50 (PC-3 cells; [1]): 8.6 µM
- IC50 (LNCaP cells; [2]): 3.8 µM
- IC50 (22Rv1 cells; [3]): 4.7 µM

Compound: CC1(C)CCC(O)C=C1/C=C/C(=O)/C=C/c1ccc2c(c1)OCO2 (stereo not shown) [Compound B76]
- IC50 (PC-3 cells; [1]): 25.8 µM
- IC50 (LNCaP cells; [2]): 11.2 µM
- IC50 (C4-2B cells; [4]): 6.2 µM
- IC50 (22Rv1 cells; [3]): 20.1 µM

Compound: CCOC(OCC)c1ccc(/C=C/C(=O)/C=C/C2=C(C)C(O)CCC2(C)C)cc1 (stereo not shown) [Compound B61]
- IC50 (PC-3 cells; [5]): 3.7 µM
- IC50 (LNCaP cells; [6]): 1.8 µM
- IC50 (C4-2B cells; [7]): 1.7 µM
- IC50 (22Rv1 cells; [8]): 2.1 µM

Compound: CCOc1ccc(/C=C/C(O)=C/C(=O)/C=C/C2=C(C)CCCC2(C)C)cc1OCC [Compound 4]
- IC50 (PC-3 cells; [9]): 53.3 µM
- IC50 (LNCaP cells; [10]): 30 µM
- IC50 (C4-2B cells; [11]): 22.6 µM

Compound: COc1ccc(/C=C/C(=O)/C=C/C2=C(C)C(O)CCC2(C)C)cc1OC (stereo not shown) [Compound B70]
- IC50 (PC-3 cells; [5]): 6.8 µM
- IC50 (LNCaP cells; [6]): 2.1 µM
- IC50 (22Rv1 cells; [8]): 8.2 µM

Compound: CC1=C(/C=C/C(=O)/C=C/c2ccc(OC(F)(F)C(F)F)cc2)C(C)(C)CCC1O (stereo not shown) [Compound B55]
- IC50 (PC-3 cells; [5]): 12.3 µM
- IC50 (LNCaP cells; [6]): 5.4 µM
- IC50 (C4-2B cells; [7]): 4.6 µM
- IC50 (22Rv1 cells; [8]): 7.7 µM

Compound: COc1cc(/C=C/C(O)=C/C(=O)/C=C/C2=C(C)CCCC2(C)C)cc(OC)c1OC [Compound 7]
- IC50 (PC-3 cells; [9]): > 50 µM
- IC50 (LNCaP cells; [10]): 21.4 µM
- IC50 (C4-2B cells; [11]): 11.9 µM
- IC50 (22Rv1 cells; [12]): 17.1 µM

Compound: CC(=O)/C=C/C1=C(C)CCCC1(C)C [β-Ionone, reference compound]
- Cellular IC50 (μM) PC-3 (PC-3 cells): Inactive^e
- Cytotoxicity, IC50 (μM) PC-3 (PC-3 cells; Table 5, β-ionone max tested 150 μM): Inactive^b
- IC50 (LNCaP cells; [13]): 151 µM
- IC50 (LNCaP cells; read-out: Cytotoxicity, IC50 (μM) LNCaP, Table 5): 151 µM

Compound: COc1ccc(/C=C/C(O)=C/C(=O)/C=C/C2=C(C)CCCC2(C)C)cc1O [Compound 2]
- IC50 (PC-3 cells; [9]): 38.3 µM
- IC50 (LNCaP cells; [10]): 25.9 µM
- IC50 (C4-2B cells; [11]): 23.1 µM

Compound: COc1cc(/C=C/C(=O)/C=C/C2=C(C)C(O)CCC2(C)C)cc(OC)c1OC (stereo not shown) [Compound B72]
- IC50 (PC-3 cells; [5]): 4.9 µM
- IC50 (LNCaP cells; [6]): 1.8 µM
- IC50 (C4-2B cells; [7]): 1.7 µM
- IC50 (22Rv1 cells; [8]): 3 µM

Compound: COc1ccc(C=CC(=O)C(=Cc2ccc(OC)c(OC)c2)C(=O)C=CC2=C(C)CCCC2(C)C)cc1OC [Compound 12]
- IC50 (PC-3 cells; read-out: Cellular IC50 (μM) PC-3, Table 2, 72 h, max tested 50 μM (β-ionone 150 μM)): 34.3 µM
- IC50 (LNCaP cells; [13]): 15.9 µM
- IC50 (C4-2B cells; [14]): 54.4 µM
- IC50 (22Rv1 cells; [15]): 49.7 µM

Compound: CC1=C(/C=C/C(=O)/C=C(O)/C=C/c2ccc(O)cc2)C(C)(C)CCC1 [Compound 5]
- IC50 (PC-3 cells; [9]): 50.6 µM
- IC50 (LNCaP cells; [10]): 18.6 µM
- IC50 (C4-2B cells; [11]): 5.7 µM
- IC50 (22Rv1 cells; [12]): 12.6 µM

Compound: CC1=C(/C=C/C(=O)/C=C/c2ccc(-c3cncnc3)cc2)C(C)(C)CCC1O (stereo not shown) [Compound B58]
- IC50 (PC-3 cells; [5]): 4.3 µM
- IC50 (LNCaP cells; [6]): 1.5 µM
- IC50 (C4-2B cells; [7]): 2.1 µM
- IC50 (22Rv1 cells; [8]): 3.8 µM

Compound: CC1(C)CCC(O)C=C1/C=C/C(=O)/C=C/c1c[nH]c2ccccc12 (stereo not shown) [Compound B81]
- IC50 (PC-3 cells; [1]): 15.2 µM
- IC50 (LNCaP cells; [2]): 4.6 µM
- IC50 (C4-2B cells; [4]): 2.3 µM
- IC50 (22Rv1 cells; [3]): 9.1 µM

Compound: CCn1c2ccccc2c2cc(/C=C(\C(=O)/C=C/C3=C(C)CCCC3(C)C)C(=O)/C=C/c3ccc4c(c3)c3ccccc3n4CC)ccc21 [Compound 18]
- Cellular IC50 (μM) PC-3 (PC-3 cells): Inactive^c
- IC50 (LNCaP cells; [13]): 11.8 µM
- IC50 (C4-2B cells; [14]): 28.5 µM
- IC50 (22Rv1 cells; [15]): 31.6 µM

Compound: Cc1ccc2[nH]cc(/C=C/C(=O)/C=C/C3=CC(O)CCC3(C)C)c2c1 (stereo not shown) [Compound B82]
- IC50 (PC-3 cells; [1]): 10.6 µM
- IC50 (LNCaP cells; [2]): 3.8 µM
- IC50 (C4-2B cells; [4]): 6.8 µM
- IC50 (22Rv1 cells; [3]): 7.3 µM

Compound: CC1=C(/C=C/C(=O)/C=C/c2ccc(N3CCOCC3)cc2)C(C)(C)CCC1O (stereo not shown) [Compound B60]
- IC50 (PC-3 cells; [5]): 16 µM
- IC50 (LNCaP cells; [6]): 3.9 µM

Now from value to molecule, other results behind:

- IC50 (PC-3 cells; [5]): 6.6 µM
- IC50 (LNCaP cells; [6]): 1.3 µM
Compound: CC1=C(/C=C/C(=O)/C=C/c2ccc(OC(F)(F)F)cc2)C(C)(C)CCC1O (stereo not shown) [Compound B54]

- IC50 (PC-3 cells; [5]): 8 µM
- IC50 (LNCaP cells; [6]): 5 µM
- IC50 (22Rv1 cells; [8]): 5.4 µM
Compound: CC1=C(/C=C/C(=O)/C=C/c2cccc(OCc3ccccc3)c2)C(C)(C)CCC1O (stereo not shown) [Compound B49]
- IC50 (C4-2B cells; [7]): 2.6 µM

- IC50 (PC-3 cells; [5]): 4.6 µM
- IC50 (LNCaP cells; [6]): 1.6 µM
- IC50 (22Rv1 cells; [8]): 1.8 µM
Compound: CC1=C(/C=C/C(=O)/C=C/c2cccc(OC(F)(F)C(F)F)c2)C(C)(C)CCC1O (stereo not shown) [Compound B47]

- Cellular IC50 (μM) PC3 (PC-3 cells; Table 8): Int
- IC50 (LNCaP cells; [6]): 8.9 µM
- IC50 (22Rv1 cells; [8]): 10.6 µM
Compound: CC1=C(/C=C/C(=O)/C=C/c2ccc(O)cc2)C(C)(C)CCC1O (stereo not shown) [Compound B52]

- IC50 (PC-3 cells; [5]): 1.7 µM
- IC50 (LNCaP cells; [6]): 1.4 µM
Compound: CC1=C(/C=C/C(=O)/C=C/c2cccc(OC(F)(F)F)c2)C(C)(C)CCC1O (stereo not shown) [Compound B46]

- IC50 (PC-3 cells; [5]): 53.9 µM
- IC50 (LNCaP cells; [6]): 12.3 µM
- IC50 (22Rv1 cells; [8]): 19.1 µM
Compound: COc1ccc(/C=C/C(=O)/C=C/C2=C(C)C(O)CCC2(C)C)cc1O (stereo not shown) [Compound B69]
- IC50 (C4-2B cells; [7]): 12 µM

- IC50 (PC-3 cells; [5]): 2 µM
- IC50 (LNCaP cells; [6]): 2.4 µM
Compound: CC1=C(/C=C/C(=O)/C=C/c2cccc(Oc3ccccc3)c2)C(C)(C)CCC1O (stereo not shown) [Compound B48]

Reference: patent publication US8470889B2 (TRT Pharma Inc., priority 2008, dated 2013)
